From patent US7531500B2, “Preventing airway mucus production by administration of EGF-R antagonists” (The Regents of the University of California, priority 1998, dated 2009)

Key:
[1] = tested on: pathogen-free rats; assay: Agarose plug-induced goblet cell metaplasia in pathogen-free rats; assay type: in vivo, rat
Protocol: Protocol of experiments. We studied pathogen-free rats, because they normally have few goblet cells in airways. The animals were anesthetized with methohexital sodium (Brevital, 25 mg/kg, i.p.). The trachea was exposed aseptically with a midline cervical incision, and agarose plugs were instilled into a bronchus via a 20 gauge Angiocath (Becton Dikinson, Sandy, Utah) connected to polyethylene tubing (PE 90, internal diameter 0.86 mm and outer diameter 1.27 mm, Clay Adams, Parsippany, N.Y.) threaded into the incised trachea. The polyethylene tube was bent at a 30° angle to allow selective instillation into the right bronchus. After instillation, the incision was closed with a suture.
To evaluate the role of EGF-R on agarose plug-induced goblet cell metaplasia, animals were treated with BIBX1522 (80 mg/kg, i.p.) 1 h before instillation of the agarose plugs and repeated daily (40 mg/kg, i.p., bid). Animals were euthanized 24, 48 or 72 h after instillation of the agarose plugs.
The first treatment (100 μl in 0.2 ml saline, i.p.) was given 1 h before the instillation of agarose plugs, and i.p. injections were repeated daily.
To study the effect of neutrophils on agarose plug-induced goblet cell metaplasia, rats were pretreated with cyclophosphamide (an inhibitor of bone marrow leukocytes) or with a combination of cyclophosphamide plus NPC 15669. Cyclophosphnamide (100 mg/kg, i.p.) was given 5 d before instillation of agarose plugs, and a second injection of cyclophosphamide (50 mg/kg, i.p.) was given 1 d before instillation of plugs. In studies with NPC 15669, the drug (10 mg/kg, i.p.) was injected 1 h before instillation of agarose plugs, and then daily for 3 d thereafter.
Tissue preparation. At various times after agarose plug instillation, rats were anesthetized with sodium pentobarbital (65 mg/kg, i.p.), the systemic circulation was perfused with 1% paraformaldehyde in diethyl pyrocarbonate-treated PBS at a pressure of 120 mmHg. The right lung was removed, and the right caudal lobe was used for histology. For frozen sections, tissues were removed and placed in 4% paraformaldehyde for 1 h and then replaced in 30% sucrose for cryoprotection overnight. The tissues were embedded in O.C.T. compound (Sakura Finetek U.S.A., Inc., Torrance, Calif.). For methacrylate sections, the tissues were placed in 4% paraformaidehyde for 24 h and then dehydrated with graded concentrations of ethanol and embedded in methacrylate JB-4 (Polysciences, Inc., Warrington, Pa.). Tissue sections (4 μm thick) were stained with Alcian blue/PAS and counterstained with hematoxylin.
Morphoometric analysis of bronchial epithelium. The percentage of Alcian blue/PAS-stained area of mucous glycoconjugates in the epithelium was determined using a semi-automatic image analysis system according to previously published methods. The area of epithelium and Alcian blue/PAS-stained mucous conjugates within the epithelium was manually circumscribed and analyzed using the NIH Image program (developed at the U.S. National Institutes of health and available from the internet by ananymous FTP or from a floppy disk from the National Technical Information Service, Springfield, Va.; part number PB95-500195GEI). The data are expressed as the percentage of the total epithelial area occupied by Alcian blue/PAS stain. […] The percentage of denuded epithelium was determined by calculating the ratio of the length of denuded epithelium to the total epithelial length.
Identification of cell types in methacrylate sections and cell analysis. The total number of epithelial cells was determined by counting epithelial cell nuclei over 2 mm of the basal lamina with an oil immersion objective lens (×1000 magnification). The linear length of the basal lamina under each analyzed region of epithelium was determined by tracing the contour of the digitalized image of the basal lamina. The epithelia; cells were identified as described previously.

[2] = tested on: pathogen-free rats; assay: IL-13-induced goblet cell metaplasia in rat airways; assay type: in vivo; details: pretreatment
Protocol: Animals were anesthetized with pentobarbital [Nembutal sodium, 50 mg/kg, intraperitoneally (ip), Abbott Laboratories, North Chicago, Ill.] and allowed to breathe spontaneously. Vehicle (phosphate buffer solution, PBS) or IL-13 was instilled intratracheally via a 20-gauge Angiocath catheter (Beckton Dickinson, Sandy, Utah) through the mouth, while the laryngeal area was visualized using a high-intensity illuminator (FiberLite; Dolan Jenner Industries, Inc., Lawrence, Mass.). The […] tissues were examined 48 hours after instillation of IL-13. Various concentrations of IL-13 (recombinant murine IL-13; 5, 50, 100, and 500 ng/rat, R&D systems, Minneapolis, Minn.) were instilled into the trachea in […]. Sterile PBS (200 μl) was instilled into the trachea as controls. For examination of the relationship between IL-13-induced GC metaplasia and activation of EGFR, animals were pretreated 1 d before instillation of IL-13 and daily thereafter with a selective EGFR tyrosine kinase inhibitor (BIBX 1522; 1-30 mg/kg/day, ip; Boehringer Ingelheim, Ingelheim, Germany). Animals were euthanized 48 hours after instillation of IL-13. In preliminary studies, we noted that IL-13 causes leukocyte recruitment into the airways. We hypothesized that leukocyte recruitment results from IL-13-induced chemoattractant release from epithelium, and that this recruitment is involved in the IL-13-induced EGFR cascade leading to GC metaplasia. Groups of animals were euthanized 4, 8, 16, 24, and 48 hours after instillation of IL-13 (500 ng), and leukocytes were counted in airway tissue. […] Sigma chemical Co., St Louis, Mo.] or with a blocking antibody to interleukin-8 (IL-BAb; rabbit anti-human IL-8 antibody; Biosource, Camarillo, Calif.). […] In another series of studies, we instilled IL-8 Ab (10 μg/rat) intratracheally, along with IL-13; we repeated the instillation of anti-human IL-8 blocking antibody at 12 hour intervals until the animals were euthanized. Animals were euthanized with a lethal dose of pentobarbital (Nembutal sodium, 200 mg/kg, ip, Abbott Laboratories, North Chicago, Ill.), and the systemic circulation was perfused with 1% paraformaldehyde in Diethylpyrocarbonate (DEPC, Sigma chemical Co., St Louis, Mo.)-treated PBS via the left ventricle. For frozen sections, […] tissues were removed, placed in 4% paraformaldehyde overnight, and then placed in 30% sucrose for cryoprotection. The tissues were embedded in optimal cutting temperature (OCT, […]., Inc., Torrance, Calif.) compound. For plastic or paraffin sections, tissues were placed in 4% paraformaldehyde overnight, dehydrated with ethanol, and embedded in JB-4 plus monomer solution A (Polysclences, Inc., Warrington, Pa.) or in paraffin. The embedded tissues were cut as cross sections 4 μm thick and placed on glass slides. In all studies, the carina was examined to obtain consistent sampling. We measured AB/PAS-positive areas and total epithelial area, and we expressed the results as the percentage of AB/PAS area to total epithelial area. The analysis was performed with the public domain NIH IMAGE program (developed at the U.S. National Institutes of Health and available by anonymous FTP from zippy.nimh.gov. or floppy disk from the National Technical Information Service, Springfield, Va., part number PB95-500195GEI). […] For immunohistochemical localization of […], we used mouse anti-human IL-8 antibody (1:20; Biosource, Camarillo, Calif.). The sections were then incubated with biotinylated horse anti-mouse IgG (Vector Laboratories, Burlingame, Calif.) at 1:200 dilution for 1 hour at room temperature. Bound antibody was visualized according to standard protocols for avidin-biotin-peroxidase complex method. The measurement of MUC5AC protein also utilized the same method used for quantitative measurement of GC metaplasia in the epithelium. Animals were euthanized 4, 8, 16, 24, and 48 hours after instillation of IL-13 (500 ng), and leukocytes were counted in airway tissue. […]

## O=P1(N(CCCl)CCCl)NCCCO1 (stereo not shown) [cyclophosphamide]
[1]; after cyclophosphamide 100 mg/kg then 50 mg/kg i.p., n=5
  neutrophil count in venous blood: 1.8±0.5%
[1]; rat, in vivo
  agarose plug-induced EGF-R protein expression: inhibited
  agarose plug-induced goblet cell metaplasia (Alcian blue/PAS-positively stained cells): inhibited
  macrophage recruitment after agarose plugs: did not inhibit
  plug-induced neutrophil recruitment in BAL: inhibited
[1]; treated rats with plugs, 24 h
  number of neutrophils in the airway lumen: 2.6±0.3 /mm of basal lamina
  number of neutrophils in the epithelium: 0.8±0.2 /mm
[2]
  IL-13-induced TNFα expression: prevented
  IL-13-induced leukocyte recruitment into airways: inhibited
  IL-13-induced mucin production: prevented
